Laboratory results as given in the NIST ThermoML archive (doi:10.1021/je200373q).

Assay: xn = mol fraction of the nth substance listed
Settings: 101 kPa, Liquid, Vibrating tube method

CCCCC [pentane] + CCCCCCCC
mass density [kg/m3]
Settings	x1 = 0.1002	x1 = 0.2008	x1 = 0.3023	x1 = 0.4019	x1 = 0.5001	x1 = 0.5982	x1 = 0.7022	x1 = 0.8003	x1 = 0.8991
278.15 K	709.35	704.52	698.24	691.87	685.19	678	669.63	660.99	651.39
283.15 K	705.34	700.46	694.11	687.66	680.91	673.65	665.18	656.45	646.73
288.15 K	701.31	696.38	689.94	683.43	676.6	669.26	660.68	651.85	642.04
293.15 K	697.26	692.29	685.74	679.16	672.26	664.83	656.15	647.21	637.29
298.15 K	693.19	688.16	681.52	674.87	667.88	660.37	651.58	642.52	632.49
303.15 K	689.09	684.01	677.28	670.54	663.47	655.87	646.96	637.79	627.64
308.15 K	684.97	679.84	673	666.19	659.03	651.33	642.31	633	622.72
313.15 K	680.83	675.63	668.7	661.8	654.59	646.75	637.61	628.16	617.96
318.16 K	676.64	671.38	664.36	657.38	650.06	642.12	632.85	623.27	–
323.16 K	672.43	667.11	659.99	652.92	645.5	637.45	628.04	–	–
328.16 K	668.2	662.81	655.59	648.42	640.9	632.73	–	–	–
333.15 K	663.94	658.48	651.16	–	–	–	–	–	–
338.15 K	659.63	654.1	646.68	–	–	–	–	–	–
343.15 K	655.28	649.68	642.13	–	–	–	–	–	–
348.15 K	650.9	645.21	637.57	–	–	–	–	–	–
353.15 K	646.47	640.7	632.94	–	–	–	–	–	–
358.15 K	642	636.15	628.27	–	–	–	–	–	–
363.15 K	637.48	631.54	623.54	–	–	–	–	–	–
